Columns and labels:
CYP 3A4 = details: liver; cited from earlier work
Wistar rats = assay: Histology and immunohistochemistry of mandibles; assay type: in vivo, rat
[1] = Toxicokinetics of infigratinib in juvenile rat plasma after oral gavage; assay type: in vivo, Crl:WI(Han) rat; details: for RAUC: AUC vs first dosing day
[2] = Female rats, 0.1 mg/kg/day oral, PND 7
[3] = Female rats, 0.1 mg/kg/day oral, PND 12
[4] = Female rats, 0.1 mg/kg/day oral, PND 17
[5] = Female rats, 0.1 mg/kg/day oral, PND 23
[6] = Female rats, 0.1 mg/kg/day oral, PND 35
[7] = Female rats, 0.3 mg/kg/day oral, PND 7
[8] = Female rats, 0.3 mg/kg/day oral, PND 12
[9] = Female rats, 0.3 mg/kg/day oral, PND 17
[10] = Female rats, 0.3 mg/kg/day oral, PND 23
[11] = Female rats, 0.3 mg/kg/day oral, PND 35
[12] = Female rats, 1.0 mg/kg/day oral, PND 7
[13] = Female rats, 1.0 mg/kg/day oral, PND 12
[14] = Female rats, 1.0 mg/kg/day oral, PND 17
[15] = Female rats, 1.0 mg/kg/day oral, PND 23
[16] = Female rats, 1.0 mg/kg/day oral, PND 35
[17] = Male rats, 0.1 mg/kg/day oral, PND 7
[18] = Male rats, 0.1 mg/kg/day oral, PND 12
[19] = Male rats, 0.1 mg/kg/day oral, PND 17
[20] = Male rats, 0.1 mg/kg/day oral, PND 23
[21] = Male rats, 0.1 mg/kg/day oral, PND 35
[22] = Male rats, 0.3 mg/kg/day oral, PND 7
[23] = Male rats, 0.3 mg/kg/day oral, PND 12
[24] = Male rats, 0.3 mg/kg/day oral, PND 17
[25] = Male rats, 0.3 mg/kg/day oral, PND 23
[26] = Male rats, 0.3 mg/kg/day oral, PND 35
[27] = Male rats, 1.0 mg/kg/day oral, PND 7
[28] = Male rats, 1.0 mg/kg/day oral, PND 12
[29] = Male rats, 1.0 mg/kg/day oral, PND 17
[30] = Male rats, 1.0 mg/kg/day oral, PND 23
[31] = Male rats, 1.0 mg/kg/day oral, PND 35

In the case of CCN1CCN(c2ccc(Nc3cc(N(C)C(=O)Nc4c(Cl)c(OC)cc(OC)c4Cl)ncn3)cc2)CC1 [infigratinib, 3-(2,6-Dichloro-3,5-dimethoxy-phenyl)-1-{6-[4-(4-ethyl-piperazin-1-yl)-phenylamino]-pyrimidin-4-yl}-1-methyl-urea], the Metabolism (CYP 3A4) is given as “metabolized mainly via CYP 3A4”, the “Rats with root resorption (cathepsin K staining)” value (shortened to “Rats with root resorption”) (Wistar rats; female rats, high dose, PND37 (vehicle 75%)) is given as 25% and the “Rats with root resorption” value (Wistar rats; female rats, low dose, PND37 (vehicle 75%)) is given as 50%. The “Rats with root resorption” value (Wistar rats; male rats, low or high dose, PND37 (vehicle 25%)) was “no male rats in either low or high dose groups exhibited root resorption”, the Cmax/D [1, 2] was 41.8 (ng/mL)/(mg/kg/day) and the Tlast [1, 2] was 24 h. For the same compound, the Cmax/D [1, 3] was 34.0 (ng/mL)/(mg/kg/day), the Tlast [1, 3] was 24 h and the RAUC [1, 3] was 0.941 ratio. The Cmax/D [1, 4] was 90.6 (ng/mL)/(mg/kg/day), the Tlast [1, 4] was 24 h and the RAUC [1, 4] was 0.839 ratio. For the same compound, the Cmax/D [1, 5] was 7.8 (ng/mL)/(mg/kg/day), the Tlast [1, 5] was 12 h and the RAUC [1, 5] was 0.108 ratio. For the same compound, the Cmax/D [1, 6] was 3.0 (ng/mL)/(mg/kg/day), the Tlast [1, 6] was 7 h and the RAUC [1, 6] was 0.0325 ratio. For the same compound, the Cmax/D [1, 7] was 64.7 (ng/mL)/(mg/kg/day), the Tlast [1, 7] was 24 h and the Cmax/D [1, 8] was 49.7 (ng/mL)/(mg/kg/day). The Tlast [1, 8] was 24 h, the RAUC [1, 8] was 0.751 ratio and the Cmax/D [1, 9] was 60.2 (ng/mL)/(mg/kg/day). The Tlast [1, 9] was 24 h, the RAUC [1, 9] was 0.548 ratio and the Cmax/D [1, 10] was 7.49 (ng/mL)/(mg/kg/day). For the same compound, the Tlast [1, 10] was 24 h, the RAUC [1, 10] was 0.103 ratio and the Cmax/D [1, 11] was 2.2 (ng/mL)/(mg/kg/day). For the same compound, the Tlast [1, 11] was 12 h, the RAUC [1, 11] was 0.0249 ratio and the Cmax/D [1, 12] was 53.2 (ng/mL)/(mg/kg/day). The Tlast [1, 12] was 24 h, the Cmax/D [1, 13] was 56.6 (ng/mL)/(mg/kg/day) and the Tlast [1, 13] was 24 h. The RAUC [1, 13] was 1.15 ratio, the Cmax/D [1, 14] was 41.2 (ng/mL)/(mg/kg/day) and the Tlast [1, 14] was 24 h. For the same compound, the RAUC [1, 14] was 0.974 ratio, the Cmax/D [1, 15] was 10.4 (ng/mL)/(mg/kg/day) and the Tlast [1, 15] was 24 h. For the same compound, the RAUC [1, 15] was 0.141 ratio, the Cmax/D [1, 16] was 4.04 (ng/mL)/(mg/kg/day) and the Tlast [1, 16] was 12 h. For the same compound, the RAUC [1, 16] was 0.0566 ratio, the Cmax/D [1, 17] was 32.1 (ng/mL)/(mg/kg/day) and the Tlast [1, 17] was 24 h. The Cmax/D [1, 18] was 33.2 (ng/mL)/(mg/kg/day), the Tlast [1, 18] was 24 h and the RAUC [1, 18] was 1.24 ratio. The Cmax/D [1, 19] was 29.9 (ng/mL)/(mg/kg/day), the Tlast [1, 19] was 24 h and the RAUC [1, 19] was 0.882 ratio. The Cmax/D [1, 20] was 5.77 (ng/mL)/(mg/kg/day), the Tlast [1, 20] was 12 h and the RAUC [1, 20] was 0.12 ratio. For the same compound, the Cmax/D [1, 21] was 3.07 (ng/mL)/(mg/kg/day), the Tlast [1, 21] was 12 h and the RAUC [1, 21] was 0.0613 ratio. The Cmax/D [1, 22] was 38.8 (ng/mL)/(mg/kg/day), the Tlast [1, 22] was 24 h and the Cmax/D [1, 23] was 47.1 (ng/mL)/(mg/kg/day). The Tlast [1, 23] was 24 h, the RAUC [1, 23] was 1.3 ratio and the Cmax/D [1, 24] was 27.1 (ng/mL)/(mg/kg/day). For the same compound, the Tlast [1, 24] was 24 h, the RAUC [1, 24] was 0.898 ratio and the Cmax/D [1, 25] was 7.1 (ng/mL)/(mg/kg/day). For the same compound, the Tlast [1, 25] was 24 h, the RAUC [1, 25] was 0.187 ratio and the Cmax/D [1, 26] was 3.08 (ng/mL)/(mg/kg/day). For the same compound, the Tlast [1, 26] was 12 h, the RAUC [1, 26] was 0.0524 ratio and the Cmax/D [1, 27] was 37.3 (ng/mL)/(mg/kg/day). For the same compound, the Tlast [1, 27] was 24 h, the Cmax/D [1, 28] was 68.8 (ng/mL)/(mg/kg/day) and the Tlast [1, 28] was 24 h. The RAUC [1, 28] was 1.59 ratio, the Cmax/D [1, 29] was 34.1 (ng/mL)/(mg/kg/day) and the Tlast [1, 29] was 24 h. The RAUC [1, 29] was 0.944 ratio, the Cmax/D [1, 30] was 11.2 (ng/mL)/(mg/kg/day) and the Tlast [1, 30] was 24 h. The RAUC [1, 30] was 0.233 ratio, the Cmax/D [1, 31] was 2.98 (ng/mL)/(mg/kg/day) and the Tlast [1, 31] was 12 h. The RAUC [1, 31] was 0.0648 ratio.

Source: article PMC10784415 (Developmental dynamics : an official publication of the …, 2023)
